What was measured:
JAK1 = JAK1 (Homo sapiens, UniProt P23458); assay: Biochemical kinase assay JAK1
Procedure: Test system: cell free assays; test items: IS181; concentrations tested: 1 ng/ml-5000 μg/ml; Kinases: a) Cell free assays: EGFR (ErbB1); FLT1 (VEGFR1); JAK1; JAK3 MAP2K1 (MEK1); PDGFRA (PDGFR alpha); PRKCA (PKC alpha); b) cell based assay: JAK-STAT.

TNF-α = TNF-α level in TNF-α stimulated HaCaT; assay type: cell-based, Human; conditions: 24 h
Procedure: (§1) Effect on pro-inflammatory cytokines against TNF-α/LPS+PMA stimulation: TNF-α; IFN-γ; TARC; TSLP; IL-6; IL-8: Cell lines: Human keratinocytes (HaCaT); test item (TI); IS181; experimental steps: pre-treatment of cells with TI for 2 hours; stimulation with TNF-α: 20 ng/ml; stimulation with LPS+PMA-10 μg/ml LPS+40 ng/ml PMA; supernatant collection for cytokine analysis after 24 hours; concentration range: 0.1 μg/ml-100 μg/ml (duplicate wells); cytokines: TNF-α; IFN-γ; TARC; TSLP; IL-6; IL-8. Method of estimating cytokines: ELISA; positive control: dexamethasone.
(§2) Cell line: HaCaT (Human Keratinocytes); TI Treatment regimen: Pretreatment for 2 h; TI Concentration range: 0.1 μg/ml-100 μg/ml (duplicate wells); TNF-α stimulation: 20 ng/ml; LPS+PMA stimulation: 10 μg/ml LPS+40 ng/ml PMA; Time point for supernatants collection: 24 h; Method of estimation: ELISA; Positive control: Dexamethasone

8-oxo-G = assay: UVB damage: 8-oxo-G formation (ELISA); assay type: cell-based, human; conditions: HaCaT, UVB 30 mJ/cm2, 5 μg/ml
Procedure: Effect on Cyclobutane Pyrimidine Dimers (CPD); Effect on 8-oxo-G formation: Cell line: HaCaT (human keratinocytes); test items: IS 181; concentration range: 0.1-100 μg/ml (Duplicate wells). Method of estimation: Plating of cells; Sera starvation with 0.1% FBS (24 hours); treatment of cells with test items (24 hours); UVB damage (30 mJ/cm2)+Test items addition (24 hours); Cyclobutane pyrimidine dimers (CPD) and 8-oxo-G estimation using ELISA.

TARC = assay: TNF-α stimulated TARC secretion in HaCaT; assay type: cell-based, Human; conditions: for TARC % decrease with respect to TNF-α / TARC Conc: HaCaT + TNF-α, 24 h
Procedure: as §1, §2

[1] = system: HaCaT (Human keratinocyte); assay: LDH enzyme release assay; assay type: cell-based
Procedure: For testing Apoptosis the Human Keratinocytes (HaCaT) cell line has been employed. The growth conditions are DMEM containing 1% FBS. […] Test concentration range is IS181 is tested at the highest (Qualitative analysis) effective concentrations selected on the basis of Quantitative JC-1 assay. The method of estimation is Mitochondrial membrane depolarization by JC-1 assay (Early apoptosis), LDH enzyme release (Necrosis). Treatment regimen & time points are JC-1 assay—Single addition, 20 h; LDH assay—Single addition, 24 h; Positive control: Triton-X-100, Doxorubicin-hydrochloride
End-point: Percentage increase in LDH activity in treated cells with respect to untreated.

Chain of JAK1 (P23458 whole entry): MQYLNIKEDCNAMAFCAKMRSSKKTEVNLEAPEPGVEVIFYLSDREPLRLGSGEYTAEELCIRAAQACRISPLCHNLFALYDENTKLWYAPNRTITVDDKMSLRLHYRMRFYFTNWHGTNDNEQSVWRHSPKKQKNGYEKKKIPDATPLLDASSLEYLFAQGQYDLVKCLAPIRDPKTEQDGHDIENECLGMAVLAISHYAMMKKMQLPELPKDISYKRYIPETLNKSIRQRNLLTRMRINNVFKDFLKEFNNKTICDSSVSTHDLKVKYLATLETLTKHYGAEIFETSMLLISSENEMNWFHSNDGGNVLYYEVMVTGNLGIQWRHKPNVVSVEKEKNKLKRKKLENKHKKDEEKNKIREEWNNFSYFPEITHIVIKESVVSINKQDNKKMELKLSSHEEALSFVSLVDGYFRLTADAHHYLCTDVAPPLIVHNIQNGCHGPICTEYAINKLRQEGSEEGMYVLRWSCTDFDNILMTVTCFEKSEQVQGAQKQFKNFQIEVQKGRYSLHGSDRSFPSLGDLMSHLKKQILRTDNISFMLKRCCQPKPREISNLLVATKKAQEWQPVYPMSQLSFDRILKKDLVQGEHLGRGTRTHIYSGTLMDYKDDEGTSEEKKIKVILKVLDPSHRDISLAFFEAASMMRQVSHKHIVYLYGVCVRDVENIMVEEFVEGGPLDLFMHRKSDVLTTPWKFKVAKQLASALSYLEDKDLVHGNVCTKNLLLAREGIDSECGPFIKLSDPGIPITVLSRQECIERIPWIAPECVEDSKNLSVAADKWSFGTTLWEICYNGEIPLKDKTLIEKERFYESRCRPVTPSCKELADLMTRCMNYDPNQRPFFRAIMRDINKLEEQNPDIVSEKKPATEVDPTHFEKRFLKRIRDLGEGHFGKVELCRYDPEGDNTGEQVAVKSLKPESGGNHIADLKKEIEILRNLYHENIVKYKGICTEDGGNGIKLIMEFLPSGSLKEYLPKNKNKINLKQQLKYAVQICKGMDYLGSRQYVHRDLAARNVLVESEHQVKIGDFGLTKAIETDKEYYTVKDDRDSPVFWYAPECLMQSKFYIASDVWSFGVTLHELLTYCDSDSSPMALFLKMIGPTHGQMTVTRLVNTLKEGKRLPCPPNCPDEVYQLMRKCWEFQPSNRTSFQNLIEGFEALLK

## H-WVQRVVEKFLK-OH [IS181, H-Trp-Val-Gln-Arg-Val-Val-Glu-Lys-Phe-Leu-Lys-OH]
JAK1; 10 μg/ml
  inhibition at 10 µg/mL: 14%
JAK1; cell free, 50 μg/ml
  inhibition at 50 µg/mL: 14%
JAK1; cell free, 100 μg/ml
  inhibition at 100 µg/mL: -42%
JAK1; cell free, 250 μg/ml
  inhibition at 250 µg/mL: -93%
JAK1; cell free, 500 μg/ml
  inhibition at 500 µg/mL: -185%
TNF-α; 0.1 μg/ml
  TNF-α % decrease with respect to TNF-α: −7.5%
  TNF-α Conc: 22731.8 pg/mL
TNF-α; 1 μg/ml
  TNF-α % decrease with respect to TNF-α: 5.8%
  TNF-α Conc: 19924.1 pg/mL
TNF-α; 5 μg/ml
  TNF-α % decrease with respect to TNF-α: −8.1%
  TNF-α Conc: 22852.1 pg/mL
TNF-α; 10 μg/ml
  TNF-α % decrease with respect to TNF-α: −15.7%
  TNF-α Conc: 24469.9 pg/mL
TNF-α; 100 μg/ml
  TNF-α % decrease with respect to TNF-α: −18.8%
  TNF-α Conc: 25125.0 pg/mL
8-oxo-G
  % Decrease in 8-OCO-G formation with respect to UVB irradiated untreated cells: 15.5%
TARC; HaCaT
  TARC inhibition: good extent of IFN-γ and TARC inhibition
TARC; 0.1 μg/ml
  TARC % decrease with respect to TNF-α: 28.6%
  TARC Conc: 43.2 pg/mL
TARC; 1 μg/ml
  TARC % decrease with respect to TNF-α: 11.3%
  TARC Conc: 53.6 pg/mL
TARC; 5 μg/ml
  TARC % decrease with respect to TNF-α: 1.5%
  TARC Conc: 59.5 pg/mL
TARC; 10 μg/ml
  TARC % decrease with respect to TNF-α: 5.3%
  TARC Conc: 57.3 pg/mL
TARC; 100 μg/ml
  TARC % decrease with respect to TNF-α: −22.6%
  TARC Conc: 74.1 pg/mL
[1]; 750 μg/ml to 2 mg/ml
  increase in LDH enzyme activity with respect to untreated: ≥ 90%
[1]; 24 h, 400 μg/ml
  % Increase with respect to untreated (LDH): 26.03%
  LDH Activity (mU/ml): 79.73 mU/ml
[1]; 24 h, 475 μg/ml
  % Increase with respect to untreated (LDH): ***49.73%
  LDH Activity (mU/ml): 94.71 mU/ml
[1]; 24 h, 500 μg/ml
  % Increase with respect to untreated (LDH): **34.76%
  LDH Activity (mU/ml): 85.25 mU/ml
[1]; 24 h, 750 μg/ml
  % Increase with respect to untreated (LDH): ***90.43%
  LDH Activity (mU/ml): 120.47 mU/ml
[1]; 24 h, 1000 μg/ml
  % Increase with respect to untreated (LDH): ***116.28%
  LDH Activity (mU/ml): 136.82 mU/ml
[1]; 24 h, 2000 μg/ml
  % Increase with respect to untreated (LDH): ***119.09%
  LDH Activity (mU/ml): 138.60 mU/ml
[1]; 24 h, concentrations around IC50 value
  increase in LDH enzyme release with respect to untreated: > 50%
